Here are results for six compounds from the NIST ThermoML archive (doi:10.1016/j.jct.2008.05.010).

The conditions of data set [1]: 298.15 K; 101.33 kPa; Liquid.
The nature of data set [2]: refractive index (Na D-line) (dimensionless). Particulars: 298.15 K; 101.33 kPa; Liquid; Standard Abbe refractometry.

± gives the expanded uncertainty stated by the source.

Regarding `CC(=O)N(C)C` [N,N-dimethylethanamide], in data set [1], the mass density (commonly the mass of a sample divided by its volume) is listed as 936.44 ± 0.13 kg/m3. Moreover, the refractive index – broadly, the speed of light in vacuum divided by its phase velocity in the sample – in data set [2] is recorded as 1.4362 ± 0.0007.

Turning to `CNC=O` [N-methylformamide], the mass density in data set [1] was 998.97 ± 0.39 kg/m3. Also, the refractive index in data set [2] is reported as 1.4303 ± 0.0007.

`CC(C)=O` [acetone]: in data set [1], the mass density was 784.59 ± 0.24 kg/m3. Moreover, the refractive index in data set [2] worked out at 1.3564 ± 0.0007.

As to `C[S+](C)[O-]` [dimethyl sulfoxide], the mass density in data set [1] came to 1095.66 ± 0.15 kg/m3. Besides, the refractive index in data set [2] was 1.4771 ± 0.0007.

As for `CN(C)C=O` [dimethylformamide], the mass density in data set [1] worked out at 943.87 ± 0.26 kg/m3. In addition, in data set [2], the refractive index is listed as 1.4279 ± 0.0007.

With `NC=O` [formamide], the mass density in data set [1] is recorded as 1129.11 ± 0.4 kg/m3. Besides, the refractive index in data set [2] is given as 1.4463 ± 0.0007.
